Data taken from patent publication US20080234262A1 (Wyeth, priority 2007, published 2008).

What was measured:
Human mTOR (FLAG-TOR) = molecular target: T1, Human mTOR (FLAG-TOR) (Homo sapiens, UniProt P42345); assay: Human mTOR kinase assay with purified enzyme, DELFIA format; type: biochemical
T1 construct: FLAG

PI3K = PI3K (Homo sapiens, UniProt P42336); assay: Fluorescence polarization assay for PI3K; type: biochemical; settings: PI3Kα; read-out: PI3Kα IC50;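 further: PI3K kinase reaction on PIP2 with ATP, 30-60 min, product sensed by GST-GRP with red probe in fluorescence polarization (mP), controls without enzyme and at zero time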
Chain of PI3K (P42336 whole entry): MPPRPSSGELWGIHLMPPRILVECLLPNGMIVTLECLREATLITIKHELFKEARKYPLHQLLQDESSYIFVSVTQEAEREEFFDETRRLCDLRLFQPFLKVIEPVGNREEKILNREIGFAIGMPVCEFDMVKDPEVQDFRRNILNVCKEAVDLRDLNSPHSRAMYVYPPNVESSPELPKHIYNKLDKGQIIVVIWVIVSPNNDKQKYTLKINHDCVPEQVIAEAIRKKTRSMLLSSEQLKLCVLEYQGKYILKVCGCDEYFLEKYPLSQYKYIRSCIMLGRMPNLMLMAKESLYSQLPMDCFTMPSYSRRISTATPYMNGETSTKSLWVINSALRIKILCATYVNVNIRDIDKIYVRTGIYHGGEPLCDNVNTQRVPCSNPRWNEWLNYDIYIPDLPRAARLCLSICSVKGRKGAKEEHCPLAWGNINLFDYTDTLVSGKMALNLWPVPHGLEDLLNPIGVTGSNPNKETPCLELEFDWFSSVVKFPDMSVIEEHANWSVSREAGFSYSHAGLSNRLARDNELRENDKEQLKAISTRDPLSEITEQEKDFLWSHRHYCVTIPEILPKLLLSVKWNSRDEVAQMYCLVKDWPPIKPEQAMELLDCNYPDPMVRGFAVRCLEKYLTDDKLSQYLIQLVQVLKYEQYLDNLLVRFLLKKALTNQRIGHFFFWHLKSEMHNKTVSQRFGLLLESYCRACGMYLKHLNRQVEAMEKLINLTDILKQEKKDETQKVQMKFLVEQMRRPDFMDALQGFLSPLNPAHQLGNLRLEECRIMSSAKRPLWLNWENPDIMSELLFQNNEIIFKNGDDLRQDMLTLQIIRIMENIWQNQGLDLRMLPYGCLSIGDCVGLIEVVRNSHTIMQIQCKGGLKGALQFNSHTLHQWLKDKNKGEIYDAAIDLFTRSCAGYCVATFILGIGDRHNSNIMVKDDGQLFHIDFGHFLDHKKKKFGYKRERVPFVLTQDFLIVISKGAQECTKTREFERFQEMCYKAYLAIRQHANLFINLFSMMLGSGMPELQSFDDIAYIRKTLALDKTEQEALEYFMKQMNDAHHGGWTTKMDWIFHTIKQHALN
Chain of PI3K (P27986 whole entry partner): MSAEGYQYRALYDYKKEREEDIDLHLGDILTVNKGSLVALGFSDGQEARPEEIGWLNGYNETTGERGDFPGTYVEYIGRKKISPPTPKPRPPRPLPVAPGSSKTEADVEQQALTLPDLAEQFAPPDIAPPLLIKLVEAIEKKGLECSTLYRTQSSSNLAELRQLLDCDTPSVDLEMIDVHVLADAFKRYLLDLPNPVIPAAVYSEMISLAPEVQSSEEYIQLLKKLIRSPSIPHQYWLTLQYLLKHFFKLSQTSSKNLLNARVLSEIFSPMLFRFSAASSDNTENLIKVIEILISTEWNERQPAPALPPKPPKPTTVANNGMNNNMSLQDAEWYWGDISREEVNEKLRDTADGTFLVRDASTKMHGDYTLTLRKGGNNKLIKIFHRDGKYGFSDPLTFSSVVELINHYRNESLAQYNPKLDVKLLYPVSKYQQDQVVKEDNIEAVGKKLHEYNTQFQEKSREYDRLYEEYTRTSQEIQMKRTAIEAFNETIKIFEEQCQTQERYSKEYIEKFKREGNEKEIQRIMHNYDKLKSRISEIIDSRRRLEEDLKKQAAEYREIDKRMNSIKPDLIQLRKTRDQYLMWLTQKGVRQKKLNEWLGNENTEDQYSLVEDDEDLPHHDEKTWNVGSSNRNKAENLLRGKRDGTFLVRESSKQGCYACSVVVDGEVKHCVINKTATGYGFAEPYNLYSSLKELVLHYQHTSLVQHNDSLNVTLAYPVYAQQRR

Substance “4-{6-[4-(2,3-Dimethyl-isothioureido)-phenyl]-4-morpholin-4-yl-pyrazolo[3,4-d]pyrimidin-1-yl}-piperidine-1-carboxylic acid isopropyl ester [Example 57]” has an IC50 (Human mTOR (FLAG-TOR)) of 118 nM and an IC50 (PI3K) of 1.7 µM.
“5-[1-(1-Benzyl-piperidin-4-yl)-4-morpholin-4-yl-1H-pyrazolo[3,4-d]pyrimidin-6-yl]-1,3-dihydro-benzoimidazol-2-one [Example 35]” was tested, and the IC50 (Human mTOR (FLAG-TOR)) was 130 nM and the IC50 (PI3K) was 8.2 µM.
